Results taken from patent publication US12239132B2, “Compounds and methods for increasing soil nutrient availability” (SOUND AGRICULTURE COMPANY, priority 2018, dated 2025).

Test system: Bacillus megaterium
Test: Phosphate solubilization assay with Bacillus megaterium (liquid NBRIP, malachite green)
Assay type: cell-based
Conditions: 25 ug/mL (solvent 50% acetone), NBRIP, 72 h
Protocol: In some aspects, a compound disclosed herein, e.g., AB09, stimulates bacterial phosphate solubilization activity. […] Cultures of B. megaterium were grown in media containing only insoluble phosphorus with and without a compound such as AB09. At the start of the experiment, there was no detectable difference of orthophosphate levels in the growth media alone and media supplemented with B. megaterium and/or AB09. Orthophosphate was measured after 72 hours of bacterial growth. Specifically, A 5 mL culture of B. megaterium was seeded from a single colony into Nutrient Broth (NB) and grown overnight in a 30° C. shaker. The cell pellet was collected by centrifugation, washed twice and resuspended in water. The concentration of B. megaterium was measured using a Nanodrop OD600 reading. B. megaterium was inoculated into liquid NBRIP media, which contains insoluble tricalcium phosphate as its sole phosphorus source. The final concentration of B. megaterium in the NBRIP media was OD600=0.02 ([…]). NBRIP media was supplemented with ML in a 1% DMSO solution to a final concentration of 100 ug/ML or 1% DMSO (both were filter sterilized through a 0.2 uM filter). Cell counts at the start of the experiment (0 hours) and at 72 hours post inoculation were measured using dilution plating. At the experiment start and after 72 hours of growth, 1 mL of culture was collected from the culture tubes. The supernatant was collected by centrifugation (5 min at 13,000 rpm). The cleared supernatant was diluted […] in molecular grade water and used for orthophosphate analysis. The remaining 4 mL of supernatant were collected by centrifugation for pH readings. Orthophosphate was measured using the malachite-green phosphate method (BioAssay Systems Malachite Green Phosphate Assay Kit Catalog No: POMG-25H). Briefly, the sample is mixed with a solution of Malachite Green and molybdate, which forms a green complex with free orthophosphate from the sample. Data are quantified on a plate reader at 620 nm. Unknown samples were run with a standard curve of known concentrations of orthophosphate. […] Phosphate solubilization in NBRIP culture media is shown at experiment start (0 h) and after 72 hours of shaking at 30° C. The left axis corresponds to box plots and whisker plots of the concentration of solubilized phosphate in the bacterial supernatant. The right axis corresponds to the pH of the supernatant. n=7 culture tubes for each B. megaterium with and without ML, and n=3 culture tubes for no bacteria with and without AB09. The malachite green phosphate assay was performed in triplicate. […] In some instances, disclosed herein are experimental culture tubes of B. megaterium growing in NBRIP without ML (AB09; leftmost two tubes) and with 100 ug/mL ML (right three tubes).
A strain of Bacillus megaterium (B. megaterium) was isolated from Iowa field soil and confirmed its ability to solubilize phosphorus by observing a cleared zone (or halo) around B. megaterium colonies when grown on solid media (NBRIP+Agar) containing only in insoluble form of phosphorus, Ca3(PO4)2. Cultures of B. megaterium were then grown in liquid NBRIP (containing only insoluble Ca3(PO4)2) with and without AB09. The growth media supernatant was analyzed for orthophosphate at the start of the experiment (0 h) and after 72 hours of growth by the malachite green quantification method.
FIG. 1A illustrates phosphate solubilization in NBRIP culture media at experiment start (0 h) and after 72 hours of shaking at 30° C. The left axis corresponds to box plots and whisker plots of the concentration of available phosphate (orthophosphate) in the bacterial supernatant. […] The malachite green phosphate assay was performed in triplicate. FIG. 1B illustrates an example of experimental culture tubes of B. megaterium growing in NBRIP without AB09 (leftmost two tubes) and with 100 ug/mL AB09 (right three tubes). […]

| SMILES | phosphate solubilization effect compared to the original AB09 molecule |
| --- | --- |
| CC1=C(C)C(Oc2c(C)occc2=O)OC1=O (stereo not drawn) [SA-002] | enhanced phosphate solubilization effect |
| CC1=CC(Oc2cc(C)oc(=O)c2)OC1=O (stereo not drawn) [SA-004] | enhanced phosphate solubilization effect |
| CCc1occc(=O)c1OC1C=C(C)C(=O)O1 (stereo not drawn) [SA-005] | did not differ from AB09 |
